Measurements published in US11439657B2, “Cancer stem cell growth inhibitor using miRNA” (CancerStem Tech Inc., priority 2017, dated 2022).
Entries after “also recorded” stand apart in the source; their conditions may differ.

Key:
[1] = tested on: human pancreatic cancer cells (PSN-1 line); test: Antitumor effect on human pancreatic cancer cells (2), cell count after transfection; assay type: cell-based; conditions: 10 pmol/well, 48 hours, FIG. 9
Description: (§1) A cell suspension prepared by suspending human pancreatic cancer cells (Bxpc3 line) in D-MEM medium (containing 10% by volume FBS) was seeded in each well of a 24-well plate at 3×10^3 cells/well, followed by culture at 37° C. overnight. Thereafter, according to the lipofectamin 2000 protocol, each miRNA was transfected at 10 pmol/well, and 48 hours later, the cells were counted. In addition, tests were also conducted under the same condition on a case where the miRNA was not introduced (untreated group), a case where hsa-miR-34a (SEQ ID NO: 8) was used (positive control) in place of the miRNA, and a case where a control miRNA (SEQ ID NO: 9) was used (control miRNA, negative control) in place of the selected miRNA.
As to hsa-miR-136-5p, hsa-miR-3065-3p and hsa-miR-181a-5p, evaluation was performed of the antitumor effect on human pancreatic cancer cells. The specific test method is the same as that for Test Example 4 except that a PSN-1 line was used as human pancreatic cancer cells.

[2] = tested on: solid tumor from the cancer stem cell population (ZsGreen+); test: Mouse subcutaneous solid tumor model test; assay type: in vivo, BALB/cA nude mice; conditions: carbonate apatite nanoparticles containing the miRNA, 40 μg/dose, tail vein i.v., days 0-19; tumor excised on the 24th day
Description: In 100 ml of distilled water, 0.37 g of NaHCO3, 90 μl of NaH2PO4.2H2O (1M) and 180 μl of CaCl2 (1 M) were added in this order and dissolved, and the pH was adjusted to 7.5 with 1N HCl. This was filtered through 0.2 μm diameter filter. Per 1 ml of the resultant buffer, 2 μg of miRNA and 4 μl of CaCl2 (1 M) were mixed and incubated in a water bath at 37° C. for 30 minutes. Then, spin down was performed at 15000 rpm×5 minutes. The resultant pellet was dispersed in physiological saline (containing 0.5 wt % albumin). Accordingly, a dispersion of composite particles containing the miRNA in carbonate apatite particles was obtained. The resultant dispersion was subjected to ultrasonic vibration treatment for 10 minutes just prior to testing. Note that the ultrasonic vibration treatment was performed for 10 minutes using a water bath with an ultrasonic vibration function, in which the dispersion contained in a plastic container was floated on water set to 20° C., under conditions of high frequency output of 55 W and oscillation frequency of 38 kHz. The preparation obtained in this way was immediately used for the tests described below.
Note that it is confirmed in the measurement using a scanning probe microscope that the dispersion of ultrasonic vibration treatment includes composite particles composed of carbonate apatite nanoparticles containing the miRNA having an average particle diameter of 50 nm or less. It is also confirmed that the resultant composite particles contain about 20 μg of the miRNA per 1 mg of carbonate apatite.
The cancer stem cell population (ZsGreen+) obtained in Test Example 1 was subcutaneously injected at 5×10^5 cells to the left and right backs of 6 to 8 weeks age BALB/cA nude mice (manufactured by CLEA Japan, Inc.) to produce solid tumor model mice. When the tumor reached about 20 mm^3 in size, the mice were randomly divided into an hsa-miR-136-5p administration group (hsa-miR-136-5p), an untreated group, and a negative control group (control miRNA). In the hsa-miR-136-5p administration group, the day at which the tumor reached about 20 mm^3 in size was 0th day. On the 0th, 3rd, 5th, 7th, 10th, 12th, 14th, 17th and 19th days, carbonate apatite nanoparticles containing the hsa-miR-136-5p were intravenously injected into the tail vein at 40 μg/dose in terms of the amount of hsa-miR-136-5p. In the negative control group, carbonate apatite nanoparticles containing a control miRNA (SEQ ID NO: 9) were intravenously injected into the tail vein at the same schedule and dose as those for the miRNA136-5p administration group. In the untreated group, no drug was administered. During the test period, the tumor volume on the back of the mouse (longer diameter×shorter diameter×shorter diameter×1/2) was measured over time, and on the 24th day, the tumor was excised from the mice and observed for size, and its weight was measured.
A mouse subcutaneous solid tumor model test was conducted in the same manner as in Test Example 2 except that hsa-miR-3065-3p was used in place of hsa-miR-136-5p.
A mouse subcutaneous solid tumor model test was conducted in the same manner as in Test Example 2 except that hsa-miR-181-5p was used in place of hsa-miR-136-5p.

[3] = tested on: human esophageal cancer cells (TE11 line); test: Antitumor effect on human esophageal cancer cells, cell count after transfection; assay type: cell-based; conditions: 10 pmol/well, FIG. 12
Description: as §1
(§2) As to hsa-miR-136-5p, hsa-miR-3065-3p, hsa-miR-4727-5p, hsa-miR-378g and hsa-miR-181a-5p, evaluation was performed of the antitumor effect on human esophageal cancer cells. The specific test method is the same as that for Test Example 4 except that human esophageal cancer cells (TE11 line) were used as cancer cells, and that the cells were counted 72 hours after transfection.

[4] = tested on: human large bowel cancer cells (DLD1 line); test: Antitumor effect on human large bowel cancer cells, cell count after transfection; assay type: cell-based; conditions: 10 pmol/well, FIG. 11
Description: as §1
as §2, with “hsa-miR-378g, hsa-miR-181a-5p, hsa-miR-362-5p” for “hsa-miR-378g”, “hsa-miR-608,” for “hsa-miR-181a-5p,”, “large bowel” for “esophageal”, “(DLD1” for “(TE11”

[5] = tested on: cancer stem cell population (ZsGreen+) established from pancreatic cancer cell line Panc-1; test: Screening of miRNAs: cell count (cell viability) of the cancer stem cell population after transfection; assay type: cell-based, human; conditions: miRNA 10 pmol/well, lipofectamin 2000, cells counted 48 and 72 hours later, FIG. 4
Description: A cancer stem cell line was established by transducing a pancreatic cancer cell line (Panc-1) with an ODC (Ornithine Decarboxylase)-Degron system capable of visualizing low metabolism that is a property of cancer stem cells using a retrovirus vector (FIG. 1a). The base sequence coding the used ODC-Degron is as set forth in SEQ ID NO: 10. Usually, cancer stem cells are so 26s proteasome hypometabolic that they cannot degrade the introduced fluorescently labeled Ornithine Decarboxylase Degron, and thus the fluorescent protein sufficiently accumulates to provide visualization.
However, even when the ODC-degron system was introduced into the pancreatic cancer cell line Panc-1, only about 0.06% cells emitting fluorescence (green) were obtained in total. With such a small number of cancer stem cells, a series of experiments including drug screening cannot be performed. Accordingly, further enrichment of cancer stem cells provided a cancer stem cell population in which cells having observed fluorescent coloring (i.e., cancer stem cells) accounted for about 81.18% in total (FIG. 1b). The obtained cancer stem cell population was designated as ZsGreen+.
A cell suspension prepared by suspending the cancer stem cell population (ZsGreen+) in a medium (DMEM medium containing 10% by volume FBS) was seeded in each well of a 24-well plate at a density of 5000 to 10000 cells/well, followed by culture at 37° C. overnight. Thereafter, according to the lipofectamin 2000 protocol, each miRNA was transfected at 10 pmol/well, and 48 hours and 72 hours later, the cells were counted. In addition, tests were also conducted under the same condition on a case where the miRNA was not introduced (untreated group, control), a case where has-miR-34a (SEQ ID NO: 8) was used (positive control) in place of the selected miRNA, and a case where a control miRNA (SEQ ID NO: 9) was used (NC1, negative control) in place of the selected miRNA. In addition, for comparison, the non-cancer stem cell population (ZsGreen−) was used in place of the cancer stem cell population (ZsGreen+) to conduct tests under the same condition.
The ratio of the number of cells under each condition to the number of control cells into which the miRNA was not introduced (cell viability, %) was determined.

[6] = tested on: human pancreatic cancer cells (Bxpc3 line); test: Antitumor effect on human pancreatic cancer cells (1), cell count after transfection; assay type: cell-based; conditions: 10 pmol/well, FIG. 8
Description: as §1

[7] = tested on: human gastric cancer cells (AGS line); test: Antitumor effect on human gastric cancer cells, cell count after transfection; assay type: cell-based; conditions: 10 pmol/well, 48 hours, FIG. 10
Description: as §1
As to hsa-miR-136-5p, hsa-miR-3065-3p and hsa-miR-181a-5p, evaluation was performed of the antitumor effect on human gastric cancer cells. The specific test method is the same as that for Test Example 4 except that human gastric cancer cells (AGS line) were used as cancer cells.

[8] = 72 hours, positive control hsa-miR-34a
[9] = cells counted 72 hours after transfection

hsa-miR-181a-5p: human-derived miR-181a-5p; base sequence set forth in SEQ ID NO: 5 as mature miRNA (AACAUUCAACGCUGUCGGUGAGU; listed as RNA, chemistry not given here; listed as Homo sapiens)
proliferation inhibitory effect on pancreatic cancer cells [1]: strong proliferation inhibitory effect
antitumor effect as compared to the untreated group and the negative control group (control miRNA) [2]: remarkably higher antitumor effect
antitumor effect [3, 8]: much better antitumor effect than that of hsa-miR-34a; also recorded: particularly remarkable antitumor effect
proliferation inhibitory effect on esophageal cancer cells [3, 9]: strong proliferation inhibitory effect
antitumor effect [4, 8]: much better antitumor effect than that of hsa-miR-34a; also recorded: particularly remarkable antitumor effect
proliferation inhibitory effect on large bowel cancer cells [4, 9]: strong proliferation inhibitory effect
proliferation inhibitory effect on cancer stem cells (cell viability) [5]: effectively suppress proliferation of cancer stem cells; also recorded: prominent proliferation inhibitory effect
antitumor effect ([6]; 48 hours, positive control hsa-miR-34a): much better antitumor effect than that of hsa-miR-34a
proliferation inhibitory effect on pancreatic cancer cells ([6]; cells counted 48 hours later): strong proliferation inhibitory effect
proliferation inhibitory effect on gastric cancer cells [7]: strong proliferation inhibitory effect
antitumor effect ([7]; positive control hsa-miR-34a): much better antitumor effect than that of hsa-miR-34a; also recorded: particularly remarkable antitumor effect
